From patent US6274715A, “Tricyclic erythromycin derivatives” (priority 1997, dated 2001)
Converted amounts (≈) assume the structure as drawn. Where two headings read alike, the source gives them in different places.

What was measured:
Format in all cases: cell-based
ESCHERICHIA COLI SS = assay: In vitro antibacterial activity, MIC, BHI agar dilution; settings: E. coli SS, unit assumed
[1] = tested on: STREPTOCOCCUS PYOGENES EES61; assay: as above; settings: S. pyogenes EES61, unit assumed
[2] = tested on: STAPHYLOCOCCUS AUREUS NCTC10649M; assay: as above; settings: S. aureus NCTC10649M
[3] = tested on: STAPHYLOCOCCUS AUREUS CMX 642A; assay: as above; settings: S. aureus CMX 642A, unit assumed
[4] = tested on: STREPTOCOCCUS PYOGENES PIU 2548; assay: as above; settings: S. pyogenes PIU 2548, unit assumed
[5] = tested on: KLEBSIELLA PNEUMONIAE ATCC 8045; assay: as above
[6] = tested on: STAPHYLOCOCCUS AUREUS ATCC 6538P; assay: as above; settings: S. aureus ATCC 6538P, 35-37° C., 20 to 24 hours
[7] = tested on: PROVIDENCIA STUARTII CMX 640; settings: P. stuartii CMX 640; BHI agar; unit assumed
[8] = tested on: PSEUDOMONAS AERUGINOSA DPHD-5263; assay: In vitro antibacterial activity, MIC, BHI agar dilution; settings: P. aeruginosa DPHD-5263, unit assumed
[9] = tested on: STAPHYLOCOCCUS AUREUS 1775; assay: as above; settings: S. aureus 1775, unit assumed
CANDIDA ALBICANS CCH 442 = assay: as above
[10] = tested on: PSEUDOMONAS AERUGINOSA K799/61; assay: as above; settings: P. aeruginosa K799/61, unit assumed
[11] = tested on: STAPHYLOCOCCUS EPIDERMIDIS 3519; settings: S. epidermidis 3519; BHI agar; unit assumed
[12] = tested on: PSEUDOMONAS AERUGINOSA DPHD-2862; assay: In vitro antibacterial activity, MIC, BHI agar dilution; settings: P. aeruginosa DPHD-2862, unit assumed
[13] = tested on: STAPHYLOCOCCUS AUREUS A-5278; assay: as above; settings: S. aureus A-5278, unit assumed
[14] = tested on: STREPTOCOCCUS BOVIS A-5169; assay: as above
ESCHERICHIA COLI H560 = assay: as above; settings: E. coli H560, unit assumed
[15] = tested on: PSEUDOMONAS AERUGINOSA BMH10; assay: as above
PSEUDOMONAS CEPACIA 296I = assay: as above; settings: P. cepacia 296I
[16] = tested on: PSEUDOMONAS AERUGINOSA K799/WT; assay: as above; settings: P. aeruginosa K799/WT
[17] = tested on: STAPHYLOCOCCUS AUREUS A5177; assay: as above
STR[…] 508 = assay: as above; settings: S. agalactiae CMX 508, unit assumed
Protocol: (§1) Representative compounds of the present invention were assayed in vitro for antibacterial activity as follows: Twelve petri dishes containing successive aqueous dilutions of the test compound mixed with 10 mL of sterilized Brain Heart Infusion (BHI) agar (Difco 0418-01-5) were prepared. Each plate was inoculated with 1:100 (or 1:10 for slow-growing strains, such as Micrococcus and Streptococcus) dilutions of up to 32 different microorganisms, using a Steers replicator block. The inoculated plates were incubated at 35-37° C. for 20 to 24 hours. In addition, a control plate, using BHI agar containing no test compound, was prepared and incubated at the beginning and end of each test.
(§2) An additional plate containing a compound having known susceptibility patterns for the organisms being tested and belonging to the same antibiotic class as the test compound was also prepared and incubated as a further control, as well as to provide test-to-test comparability. Erythromycin A was used for this purpose.
(§3) After incubation, each plate was visually inspected. The minimum inhibitory concentration (MIC) was defmed as the lowest concentration of drug yielding no growth, a slight haze, or sparsely isolated colonies on the inoculum spot as compared to the growth control.

EN[…] ATCC 8043 = assay: as above; settings: E. faecium ATCC 8043, unit assumed
Protocol: as §1, §2, §3

M[…] ATCC 4698 = assay: as above; settings: M. luteus ATCC 4698, unit assumed
Protocol: as §1, §2, §3

M[…] ATCC 9341 = assay: as above
Protocol: as §1, §2, §3

[18] = tested on: STREPTOCOCCUS PYOGENES 930; assay: as above
[19] = tested on: PSEUDOMONAS AERUGINOSA 5007; assay: as above
ESCHERICHIA COLI KNK 437 = settings: unit assumed
[20] = tested on: STAPHYLOCOCCUS AUREUS CMX 553; assay: In vitro antibacterial activity, MIC, BHI agar dilution
[21] = tested on: ENTEROBACTER AEROGENES ATCC 13048; assay: as above
[22] = tested on: MYCOBACTERIUM SMEGMATIS ATCC 114; assay: as above; settings: M. smegmatis ATCC 114, unit assumed
ESCHERICHIA COLI DC-2 = assay: as above
ESCHERICHIA COLI JUHL = settings: E. coli JUHL; BHI agar; unit assumed
[23] = K. pneumoniae ATCC 8045, unit assumed
[24] = C. albicans CCH 442, unit assumed
[25] = P. aeruginosa BMH10, unit assumed
[26] = M. luteus ATCC 9341, unit assumed
[27] = P. aeruginosa 5007, unit assumed
[28] = S. aureus CMX 553, unit assumed

| Compound | MIC (ESCHERICHIA COLI SS) [µg/mL] | MIC [1] [µg/mL] | MIC ([2]; unit assumed) [µg/mL] | MIC [3] [µg/mL] | MIC [4] [µg/mL] | MIC [5, 23] [µg/mL] | MIC ([6]; unit assumed) [µg/mL] | MIC [7] [µg/mL] | MIC [8] [µg/mL] | MIC [9] [µg/mL] | MIC (CANDIDA ALBICANS CCH 442; [24]) [µg/mL] | MIC [10] [µg/mL] | MIC [11] [µg/mL] | MIC [12] [µg/mL] | MIC [13] [µg/mL] | MIC ([14]; S. bovis A-5169, unit assumed) [µg/mL] | MIC (ESCHERICHIA COLI H560) [µg/mL] | MIC [15, 25] [µg/mL] | MIC (STR[…] 508) [µg/mL] | MIC (M[…] ATCC 4698) [µg/mL] | also measured |
| --- | --- | --- | --- | --- | --- | --- | --- | --- | --- | --- | --- | --- | --- | --- | --- | --- | --- | --- | --- | --- | --- |
| CC[C@H]1OC(=O)[C@H](C)C(=O)[C@H](C)[C@@H](O[C@@H]2O[C@H](C)C[C@H](N(C)C)[C@H]2O)[C@](C)(OC)C[C@@H](C)C2=NC[C@@H](Cc3ccccc3)N3C(=O)O[C@@]1(C)[C@H]3[C@H]2C [Example 6] | 0.02 (≈ 0.0275 µM) | 0.02 (≈ 0.0275 µM) | 0.1 (≈ 0.137 µM) | 0.1 (≈ 0.137 µM) | 0.39 (≈ 0.536 µM) | 12.5 (≈ 17.2 µM) | 0.1 (≈ 0.137 µM) | 100 (≈ 137 µM) | 12.5 (≈ 17.2 µM) | > 100 | > 100 | 0.39 (≈ 0.536 µM) | 0.1 (≈ 0.137 µM) | 100 (≈ 137 µM) | > 100 | 0.01 (≈ 0.0137 µM) | 3.1 (≈ 4.26 µM) | 50 (≈ 68.7 µM) | 0.02 (≈ 0.0275 µM) | 0.1 (≈ 0.137 µM) | MIC (PSEUDOMONAS CEPACIA 296I; unit assumed): 50 µg/mL (≈ 68.7 µM); MIC ([16]; unit assumed): 25 µg/mL (≈ 34.3 µM); MIC ([17]; S. aureus A5177): 0.05 µg/mL (≈ 0.0687 µM); MIC (EN[…] ATCC 8043): 0.1 µg/mL (≈ 0.137 µM); MIC (M[…] ATCC 9341; [26]): 0.02 µg/mL (≈ 0.0275 µM); MIC ([18]; S. pyogenes 930, unit assumed): > 100 µg/mL; MIC [19, 27]: 100 µg/mL (≈ 137 µM); MIC (ESCHERICHIA COLI KNK 437): 6.2 µg/mL (≈ 8.52 µM); MIC [20, 28]: 0.2 µg/mL (≈ 0.275 µM) |
| CC[C@H]1OC(=O)[C@H](C)C(=O)[C@H](C)[C@@H](O[C@@H]2O[C@H](C)C[C@H](N(C)C)[C@H]2O)[C@](C)(OC)C[C@@H](C)C2=NC3CN(CCCc4ccccc4)CC3N3C(=O)O[C@@]1(C)[C@H]3[C@H]2C (stereo partly shown) [Example 112] |  |  |  | 0.78 (≈ 0.979 µM) | 0.2 (≈ 0.251 µM) |  |  |  |  |  |  | 0.78 (≈ 0.979 µM) | 0.78 (≈ 0.979 µM) |  |  |  | 50 (≈ 62.7 µM) |  | 0.02 (≈ 0.0251 µM) | 0.2 (≈ 0.251 µM) | MIC ([2]; listed as Ex 112, unit assumed): 0.78 µg/mL (≈ 0.979 µM); MIC ([5]; K. pneumoniae ATCC 8045, listed as Ex 112, unit assumed): 100 µg/mL (≈ 125 µM); MIC ([6]; listed as Ex 112, unit assumed): 0.39 µg/mL (≈ 0.489 µM); MIC ([21]; E. aerogenes ATCC 13048, listed as Ex 112, unit assumed): 100 µg/mL (≈ 125 µM); MIC (CANDIDA ALBICANS CCH 442; C. albicans CCH 442, listed as Ex 112, unit assumed): 100 µg/mL (≈ 125 µM); MIC [22]: 0.39 µg/mL (≈ 0.489 µM); MIC (ESCHERICHIA COLI DC-2; E. coli DC-2, listed as Ex 112, unit assumed): > 100 µg/mL; MIC ([14]; S. bovis A-5169, listed as Ex 112, unit assumed): ≤ 0.005 µg/mL; MIC ([15]; P. aeruginosa BMH10, listed as Ex 112, unit assumed): 100 µg/mL (≈ 125 µM); MIC (PSEUDOMONAS CEPACIA 296I; listed as Ex 112, unit assumed): 100 µg/mL (≈ 125 µM); MIC ([16]; listed as Ex 112, unit assumed): > 100 µg/mL; MIC ([17]; S. aureus A5177, listed as Ex 112, unit assumed): 0.39 µg/mL (≈ 0.489 µM); MIC (M[…] ATCC 9341; M. luteus ATCC 9341, listed as Ex 112, unit assumed): 0.1 µg/mL (≈ 0.125 µM); MIC ([18]; S. pyogenes 930, listed as Ex 112, unit assumed): > 100 µg/mL; MIC ([19]; P. aeruginosa 5007, listed as Ex 112, unit assumed): > 100 µg/mL; MIC (ESCHERICHIA COLI KNK 437; E. coli KNK 437, BHI agar, listed as Ex 112): 100 µg/mL (≈ 125 µM); MIC ([20]; S. aureus CMX 553, listed as Ex 112, unit assumed): 0.78 µg/mL (≈ 0.979 µM) |
| CC[C@H]1OC(=O)[C@H](C)C(=O)[C@H](C)[C@@H](O[C@@H]2O[C@H](C)C[C@H](N(C)C)[C@H]2O)[C@](C)(OC)C[C@@H](C)C2=NC(COCc3ccccc3)C(COCc3ccccc3)N3C(=O)O[C@@]1(C)[C@H]3[C@H]2C (stereo partly shown) [Example 146] | 0.78 (≈ 0.888 µM) | 0.05 (≈ 0.0569 µM) | 0.39 (≈ 0.444 µM) | 0.39 (≈ 0.444 µM) | 0.78 (≈ 0.888 µM) | 100 (≈ 114 µM) | 0.39 (≈ 0.444 µM) | 100 (≈ 114 µM) | 100 (≈ 114 µM) | 50 (≈ 56.9 µM) | 50 (≈ 56.9 µM) | 0.78 (≈ 0.888 µM) | 0.39 (≈ 0.444 µM) | 100 (≈ 114 µM) | 50 (≈ 56.9 µM) | 0.05 (≈ 0.0569 µM) | 25 (≈ 28.5 µM) | 100 (≈ 114 µM) | 0.05 (≈ 0.0569 µM) | 0.2 (≈ 0.228 µM) | MIC ([21]; E. aerogenes ATCC 13048, unit assumed): > 100 µg/mL; MIC [22]: 0.39 µg/mL (≈ 0.444 µM); MIC (ESCHERICHIA COLI DC-2; E. coli DC-2, unit assumed): 100 µg/mL (≈ 114 µM); MIC (PSEUDOMONAS CEPACIA 296I; unit assumed): 25 µg/mL (≈ 28.5 µM); MIC ([16]; unit assumed): 100 µg/mL (≈ 114 µM); MIC (EN[…] ATCC 8043): 0.05 µg/mL (≈ 0.0569 µM); MIC (M[…] ATCC 9341; [26]): 0.05 µg/mL (≈ 0.0569 µM); MIC ([18]; S. pyogenes 930, unit assumed): 12.5 µg/mL (≈ 14.2 µM); MIC (ESCHERICHIA COLI JUHL): 50 µg/mL (≈ 56.9 µM); MIC [19, 27]: 100 µg/mL (≈ 114 µM); MIC (ESCHERICHIA COLI KNK 437; E. coli KNK 437, BHI agar): 25 µg/mL (≈ 28.5 µM); MIC [20, 28]: 0.39 µg/mL (≈ 0.444 µM) |
